In data set [1] the test system is human colon cancer line KM20C. Kind of data set: Antitumor effect of continuous intravenous infusion of CNDAC and gemcitabine in tumor-bearing rats. Format: in vivo, rat. How it is done:
The antitumor effect was studied in a continuous intravenous infusion of CNDAC and gemcitabine administered to tumor-bearing rats having the human colon cancer line KM20C. FIG. 2 indicates the results.
CNDAC was administered by continuous intravenous infusion (continuously injected under the skin for 24 hours using a subcutaneous implantation constant-speed pump) in an amount of 36 mg/kg/day on Days 1 and 8, or 4.5 mg/kg/day on Days 1 to 14. Alternatively, gemcitabine was administered by rapid intravenous infusion in an amount of 300 mg/kg/day once a week for two weeks (Days 1 and 8), or by continuous intravenous infusion in an amount of 1.0 mg/kg/day for two weeks. Relative tumor volume was obtained and compared in a drug administered group and a non-administered group (control group) of each administration method.

Data set [2] can be described thus: Side effect (body weight suppression) in tumor-bearing rats having PAN-4. Format: in vivo, rat. The method, then: (§1) A relation between the antitumor effect and side effect (body weight suppression) was studied in a continuous intravenous infusion of CNDAC administered to tumor-bearing rats having the human pancreatic cancer line PAN-4. FIGS. 3 and 4 indicate the results.
(§2) CNDAC was administered by continuous intravenous infusion (continuously injected under the skin for 24 hours using a subcutaneous implantation constant-speed pump) in an amount of 36 mg/kg/day on Day 1, or 4.5 mg/kg/day on Days 1 to 14. Relative tumor volume was obtained and compared in a CNDAC administered group and a non-administered group (control group) of each administration method.
Further, body weight reduction in the two-week continuous intravenous infusion group and 24-hour continuous intravenous infusion group was studied.

The test system of data set [3] is human lung cancer line LX-1. Kind of data set: Antitumor effect, rapid vs continuous intravenous infusion in tumor-bearing rats. Format: in vivo, rat. To be noted: continuous infusion 4.5 mg/kg/day for two weeks compared with rapid intravenous infusion (800 mg/kg/day Days 1, 5, 8, 12 or 20 mg/kg/day Days 1-5 and 8-12). How it is done: The antitumor effect was studied in rapid intravenous infusion and continuous intravenous infusion of CNDAC in tumor-bearing rat models. FIG. 1 indicates the study results of the antitumor effect in rapid intravenous infusion and continuous intravenous infusion of CNDAC administered to tumor-bearing rats having the human lung cancer line LX-1.
CNDAC (free base) was administered by rapid intravenous infusion (rapidly injected into a caudal vein using a syringe) in an amount of 800 mg/kg/day on Days 1, 5, 8, and 12, or 20 mg/kg/day on Days 1 to 5 and 8 to 12. Alternatively, CNDAC was administered by continuous intravenous infusion (continuously injected under the skin for 24 hours using a subcutaneous implantation constant-speed pump) in an amount of 4.5 mg/kg/day for two weeks. Relative tumor volume (a ratio of tumor volume on Day 1 of administration and that on Day 14 of administration) was obtained in a CNDAC administered group and a non-administered group (control group) of each administration method, and the obtained relative tumor volume was compared.

Data set [4] relates to human-derived tumor lines. Kind of data set: Antitumor tests using animal models, rapid intravenous infusion. Type of data set: in vivo. As to conditions: rapid intravenous infusion for 10 consecutive days, five times a week for two weeks, or once a week for two weeks; majority of lines; regrowth after completion. The source says:
However, the regrowth of tumors was observed after completion of the administration, and the cytoreductive effect was not necessarily shown. Further, increasing the dosage so as to increase the antitumor effect causes toxicity, including body weight suppression and leucopenia.

Data set [5] concerns human pancreatic cancer line PAN-4. Kind of data set: Antitumor effect of continuous intravenous infusion in tumor-bearing rats. Format: in vivo, rat. As to conditions: two-week continuous infusion 4.5 mg/kg/day Days 1 to 14 compared with 24-hour continuous infusion 36 mg/kg/day Day 1. The method, then:
as §1, §2

Data set [6] concerns patients having a variety of solid cancers. In words: Clinical Phase I equivalent test, continuous intravenous infusion for 168 hours once every two weeks. Type of data set: in vivo, human. How it is done: (§3) The present test was conducted on patients having a variety of solid cancers for which standard treatment was ineffective or no treatment was available (e.g., digestive system cancer, head and neck cancer, breast cancer, and the like). The test is equivalent to the Clinical Phase I Test, which primarily evaluates safety so as to determine a recommended dose (RD) that can be safely administered with no side effect concerns in the Clinical Phase II Test implemented per cancer type. Treatment effect on tumors was also evaluated in the test when possible. In the treatment effect test, the cytoreductive effect was determined based on comprehensive evaluation of target lesions (lesions having a size measurable at a slice width on CT and a larger size) and non-target lesions (all lesions not included in the target lesions), with reference to the RECIST evaluation method (Journal of the National Cancer Institute, 2000, Vol. 92, No. 3, 205-216). […] SD (stable disease) indicates a case where reduction of tumors was not enough to be determined as PR, but insufficient to be determined as PD; and the progression of tumors stopped and no exacerbation was observed.
The frequency of adverse events and treatment effect were studied in a case where a course was repeatedly performed in which the antitumor agent was administered by continuous intravenous infusion in an amount of 3.0 to 4.0 mg CNDAC (free base) per square meter of body surface area for a duration of 168 hours once every two weeks. Tested patients, evaluation methods, and evaluation standards are the same as those in the test in Example 1.

Data set [7] relates to human breast cancer and colon cancer lines. Kind of data set: Antitumor effect, rapid vs continuous intravenous infusion in tumor-bearing rat models, further lines. Format: in vivo.
Data set [8] concerns patients having a variety of solid cancers. Kind of data set: Clinical Phase I equivalent test, continuous intravenous infusion for 336 hours once every three weeks. Type of data set: in vivo, human. How it is done: The frequency of adverse events and treatment effect were studied in a case where a course was repeatedly performed in which the antitumor agent was administered to cancer patients by continuous intravenous infusion in an amount of 2.0 to 4.0 mg/m^2 of CNDAC (free base) for a duration of 336 hours once every three weeks.
as §3

Where [9] appears, read: 4.0 mg/m^2, 168 hours once every two weeks.
Setting [10] is: 3.0 mg/m^2, 336 hours once every three weeks.

With `Nc1ccn([C@@H]2O[C@H](CO)[C@@H](O)C2(F)F)c(=O)n1` [gemcitabine, reference compound], the “tumor volume after completion of administration” value in data set [1] (gemcitabine continuous intravenous infusion 1.0 mg/kg/day for two weeks) is recorded as “not reduced after the administration was completed”.

Take `N#C[C@H]1[C@H](O)[C@@H](CO)O[C@H]1n1ccc(N)nc1=O` [CNDAC, 4-amino-1-(2-cyano-2-deoxy-β-D-arabinofuranosyl)-2(1H)-pyrimidinone]: the “body weight reduction at maximum” value in data set [2] (24-hour continuous intravenous infusion group, 36 mg/kg/day on Day 1) was 20.4%; in data set [2] (two-week continuous intravenous infusion, 4.5 mg/kg/day on Days 1 to 14), 4.6%. The results for the “antitumor effect (relative tumor volume)” value in data set [3] and in data set [5] were “high antitumor effect” and “significantly high antitumor effect”, respectively. Also, the “tumor volume after completion of administration” value in data set [1] (CNDAC continuous intravenous infusion (36 mg/kg/day Days 1 and 8 or 4.5 mg/kg/day Days 1 to 14)) was “significantly reduced even after the administration was completed”. The “antitumor and antiproliferative effects” value in data set [4] is “strong antitumor and antiproliferative effects”. In addition, the “adverse event requiring interruption of the administration” value in data set [6] (3.0 mg/m^2, 168 hours once every two weeks) was “no adverse event was seen that required interruption of the administration”; in data set [8] (2.0 mg/m^2, 336 hours once every three weeks), “no adverse event was seen that required interruption of the administration”. Besides, the “febrile neutropenia of CTCAE Grade 3” value is recorded as “one case” in data set [6] (setting [9]) and “all cases” in data set [8] (4.0 mg/m^2, 336 hours once every three weeks, three cases). In addition, the “neutropenia of Grade 4” value in data set [6] (setting [9]) was “one case”. Moreover, the “efficacy (SD, stable disease), cases” value in data set [6] (4.0 mg/m^2, 168 hours once every two weeks, two out of the three cases) is recorded as 67%; in data set [8] (3.0 mg/m^2, 336 hours once every three weeks, RECIST) it was “one out of the three cases”. In addition, the “dose limiting toxicity (DLT) observed, cases” value is 67% in data set [6] (4.0 mg/m^2, 168 hours once every two weeks, two out of three evaluable cases) and 100% in data set [8] (4.0 mg/m^2, 336 hours once every three weeks, three out of three cases). Besides, the “antitumor effect of continuous compared with rapid intravenous infusion” value in data set [7] was “The effect was exhibited”. Moreover, the “reduction (tumor) in one SD case” value in data set [8] (2.0 mg/m^2, 336 hours once every three weeks, one case) is recorded as “about 15%”. Also, the “dose limiting toxicity (DLT)” value in data set [8] (setting [10]) is listed as “not observed”. The “neutropenia of Grades 3 and 4” value in data set [8] (setting [10]) is on record as “found in the second case each of two courses”. Besides, the “platelet reduction of Grade 4” value in data set [8] (4.0 mg/m^2, 336 hours once every three weeks) is “one out of the three cases”.

(Values after patent US7863255B2, “Methods of administering antitumor agent comprising deoxycytidine derivative” (Taiho Pharmaceutical Co., Ltd., priority 2008, dated 2011).)
